The results in this text go back to the supplement of paper PMC11208160.
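Note: IS621 bridge recombinase in Escherichia coli cells against a fixed T5 target plasmid.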

The series is described as follows: recombinant UMI read abundance after kanamycin selection (control-corrected) (log10(CPM+1)); higher = more efficient recombination; extreme values may be limits of the assay; sequences stand for … in AGTGCAGAGAAAATCGGCCAGTTTTCTCTGCCTGCAGTCCGCATGCCGTGGGACCCCTTGGGTTCTAACCTGTTGCCTAGATTTATGCAGCGGACTGCCTTTCTCCCAAAGTGATAAACCGG…AGGTTGGTTTCACT; site = the 11-nt donor. Put shortly:
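For the IS621 bridge recombinase, a pooled Escherichia coli screen tested donor and donor-binding-loop pairs. Cells received the pair library together with a target plasmid encoding a fixed target and T7-inducible recombinase, then went onto IPTG (0.07 mM) plus kanamycin or unselected plates in duplicate. After PCR across the donor–target junction and sequencing, recombinant UMI counts were normalized to CPM, averaged, and scaled by control-derived factors. Each value is given as log10(CPM+1).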
For “ACTATTGCATGGACCGGTTTTCCCGGTAATCCGTATTTGGT (site ACTATTGCTAC)”, the “recombinant UMI read abundance (log10)” value was determined as 1.91.

Regarding “ACTCAAGCATGGACCGGTTTTCCCGGTAATCCGTATTTGCA (site ACTCAAGCTTG)”, the “recombinant UMI read abundance (log10)” value turned out to be 2.26.

On to “ACTCAATCATGGACCGGTTTTCCCGGTAATCCGTATTTGAG (site ACTCAATCTCT)”, for which the “recombinant UMI read abundance (log10)” value stood at 1.69.

Take “ACTCCAACATGGACCGGTTTTCCCGGTAATCCGTATTTGTC (site ACTCCAACTGA)”: the “recombinant UMI read abundance (log10)” value worked out at 1.34.

On to “ACTCCAGCATGGACCGGTTTTCCCGGTAATCCGTATTTGAT (site ACTCCAGCTAT)”, for which the “recombinant UMI read abundance (log10)” value came to 2.13.

For the sequence “ACTCGCCCATGGACCGGTTTTCCCGGTAATCCGTATTTGTT (site ACTCGCCCTAA)”, the “recombinant UMI read abundance (log10)” value amounted to 1.08.

As for “ACTCGTGCATGGACCGGTTTTCCCGGTAATCCGTATTTGGT (site ACTAGTGCTAC)”, the “recombinant UMI read abundance (log10)” value is 0.43.

In the case of “ACTCGTGCATGGACCGGTTTTCCCGGTAATCCGTATTTGGT (site ACTCGTGCTAC)”, the “recombinant UMI read abundance (log10)” value was 1.07.

Regarding “ACTCGTGCATGGACCGGTTTTCCCGGTAATCCGTATTTGGT (site ACTGGTGCTAC)”, the “recombinant UMI read abundance (log10)” value was 0.222.

“ACTCGTGCATGGACCGGTTTTCCCGGTAATCCGTATTTGGT (site ACTTGTGCTAC)”: the “recombinant UMI read abundance (log10)” value was determined as 0.839.

Turning to “ACTCTCCCATGGACCGGTTTTCCCGGTAATCCGTATTTGAT (site ACTCTCCCTAT)”, the “recombinant UMI read abundance (log10)” value worked out at 0.628.

As for “ACTCTCTCATGGACCGGTTTTCCCGGTAATCCGTATTTGCA (site ACTCTCTCTTG)”, the “recombinant UMI read abundance (log10)” value was determined as 3.19.

In the case of “ACTGATGCATGGACCGGTTTTCCCGGTAATCCGTATTTGGC (site ACTGATGCTGC)”, the “recombinant UMI read abundance (log10)” value came to 1.81.

“ACTGCTACATGGACCGGTTTTCCCGGTAATCCGTATTTGAA (site ACTGCTACTTT)”: the “recombinant UMI read abundance (log10)” value turned out to be 0.749.

On to “ACTGGTGCATGGACCGGTTTTCCCGGTAATCCGTATTTGGT (site ACTAGTGCTAC)”, for which the “recombinant UMI read abundance (log10)” value came out at 1.

Take “ACTGGTGCATGGACCGGTTTTCCCGGTAATCCGTATTTGGT (site ACTCGTGCTAC)”: the “recombinant UMI read abundance (log10)” value came to 0.414.

Take “ACTGGTGCATGGACCGGTTTTCCCGGTAATCCGTATTTGGT (site ACTGGTGCTAC)”: the “recombinant UMI read abundance (log10)” value turned out to be 1.69.

As for “ACTGGTGCATGGACCGGTTTTCCCGGTAATCCGTATTTGGT (site ACTTGTGCTAC)”, the “recombinant UMI read abundance (log10)” value stood at 0.401.

Take “ACTGTAACATGGACCGGTTTTCCCGGTAATCCGTATTTGCT (site AATGTAACTAG)”: the “recombinant UMI read abundance (log10)” value is 0.987.

Turning to “ACTGTAACATGGACCGGTTTTCCCGGTAATCCGTATTTGCT (site ACTGTAACTAG)”, the “recombinant UMI read abundance (log10)” value amounted to 2.23.

In the case of “ACTGTAACATGGACCGGTTTTCCCGGTAATCCGTATTTGCT (site AGTGTAACTAG)”, the “recombinant UMI read abundance (log10)” value stood at 1.12.

Consider “ACTGTAACATGGACCGGTTTTCCCGGTAATCCGTATTTGCT (site ATTGTAACTAG)”, for which the “recombinant UMI read abundance (log10)” value came to 1.55.

“ACTGTGTCATGGACCGGTTTTCCCGGTAATCCGTATTTGCA (site ACAGTATCTTG)”: the “recombinant UMI read abundance (log10)” value was found to be 2.5.

Regarding “ACTGTGTCATGGACCGGTTTTCCCGGTAATCCGTATTTGCA (site ACTGTGTCTTG)”, the “recombinant UMI read abundance (log10)” value was 2.89.

On to “ACTTAACCATGGACCGGTTTTCCCGGTAATCCGTATTTGCA (site ACTTAACCTTG)”, for which the “recombinant UMI read abundance (log10)” value was 0.

“ACTTAGACATGGACCGGTTTTCCCGGTAATCCGTATTTGGG (site ACATAGACTCC)”: the “recombinant UMI read abundance (log10)” value was found to be 0.0123.

“ACTTAGACATGGACCGGTTTTCCCGGTAATCCGTATTTGGG (site ACCTAGACTCC)”: the “recombinant UMI read abundance (log10)” value worked out at 0.00452.

Regarding “ACTTAGACATGGACCGGTTTTCCCGGTAATCCGTATTTGGG (site ACGTAGACTCC)”, the “recombinant UMI read abundance (log10)” value was 0.00655.

“ACTTAGACATGGACCGGTTTTCCCGGTAATCCGTATTTGGG (site ACTTAGACTCC)”: the “recombinant UMI read abundance (log10)” value worked out at 0.0876.

In the case of “ACTTCGTCATGGACCGGTTTTCCCGGTAATCCGTATTTGTG (site ACTTCGTCTCA)”, the “recombinant UMI read abundance (log10)” value was 0.306.

On to “ACTTCTACATGGACCGGTTTTCCCGGTAATCCGTATTTGTG (site ACATCTACTCA)”, for which the “recombinant UMI read abundance (log10)” value was 0.0153.

With “ACTTCTACATGGACCGGTTTTCCCGGTAATCCGTATTTGTG (site ACCTCTACTCA)”, the “recombinant UMI read abundance (log10)” value was determined as 0.00536.

As to “ACTTCTACATGGACCGGTTTTCCCGGTAATCCGTATTTGTG (site ACGTCTACTCA)”, the “recombinant UMI read abundance (log10)” value was 0.0444.

In the case of “ACTTCTACATGGACCGGTTTTCCCGGTAATCCGTATTTGTG (site ACTTCTACTCA)”, the “recombinant UMI read abundance (log10)” value amounted to 0.179.

For the sequence “ACTTGTGCATGGACCGGTTTTCCCGGTAATCCGTATTTGGT (site ACTAGTGCTAC)”, the “recombinant UMI read abundance (log10)” value amounted to 0.652.

In the case of “ACTTGTGCATGGACCGGTTTTCCCGGTAATCCGTATTTGGT (site ACTCGTGCTAC)”, the “recombinant UMI read abundance (log10)” value came out at 0.73.

As for “ACTTGTGCATGGACCGGTTTTCCCGGTAATCCGTATTTGGT (site ACTGGTGCTAC)”, the “recombinant UMI read abundance (log10)” value was 0.211.

Take “ACTTGTGCATGGACCGGTTTTCCCGGTAATCCGTATTTGGT (site ACTTGTGCTAC)”: the “recombinant UMI read abundance (log10)” value worked out at 1.18.

Turning to “ACTTTACCATGGACCGGTTTTCCCGGTAATCCGTATTTGCT (site ACTTTACCTAG)”, the “recombinant UMI read abundance (log10)” value was 0.431.

Turning to “ACTTTATCATGGACCGGTTTTCCCGGTAATCCGTATTTGCA (site ACAGTATCTTG)”, the “recombinant UMI read abundance (log10)” value turned out to be 2.35.

As to “ACTTTATCATGGACCGGTTTTCCCGGTAATCCGTATTTGCA (site ACTTTATCTTG)”, the “recombinant UMI read abundance (log10)” value was 1.85.

On to “AGAAACACATGGACCGGTTTTCCCGGTAATCCGTATTTGTC (site AGAAACACTGA)”, for which the “recombinant UMI read abundance (log10)” value is 2.8.

Regarding “AGAAAGACATGGACCGGTTTTCCCGGTAATCCGTATTTGCT (site AGAAAGACTAG)”, the “recombinant UMI read abundance (log10)” value was 2.1.

In the case of “AGAAAGACATGGACCGGTTTTCCCGGTAATCCGTATTTGCT (site AGAAAGCCTAG)”, the “recombinant UMI read abundance (log10)” value was found to be 0.934.

“AGAAAGACATGGACCGGTTTTCCCGGTAATCCGTATTTGCT (site AGAAAGGCTAG)”: the “recombinant UMI read abundance (log10)” value was 1.02.

“AGAAAGACATGGACCGGTTTTCCCGGTAATCCGTATTTGCT (site AGAAAGTCTAG)”: the “recombinant UMI read abundance (log10)” value came out at 0.572.

As to “AGAAAGGCATGGACCGGTTTTCCCGGTAATCCGTATTTGCA (site AGAAAGGCTAG)”, the “recombinant UMI read abundance (log10)” value amounted to 0.

On to “AGAAAGGCATGGACCGGTTTTCCCGGTAATCCGTATTTGCA (site AGAAAGGCTCG)”, for which the “recombinant UMI read abundance (log10)” value turned out to be 0.889.

With “AGAAAGGCATGGACCGGTTTTCCCGGTAATCCGTATTTGCA (site AGAAAGGCTGG)”, the “recombinant UMI read abundance (log10)” value turned out to be 0.

In the case of “AGAAAGGCATGGACCGGTTTTCCCGGTAATCCGTATTTGCA (site AGAAAGGCTTG)”, the “recombinant UMI read abundance (log10)” value was determined as 1.9.

For the sequence “AGAAATGCATGGACCGGTTTTCCCGGTAATCCGTATTTGCT (site AGAAAAGCTAG)”, the “recombinant UMI read abundance (log10)” value was 1.53.

As for “AGAAATGCATGGACCGGTTTTCCCGGTAATCCGTATTTGCT (site AGAAACGCTAG)”, the “recombinant UMI read abundance (log10)” value is 1.8.
